The values that follow come from ChEMBL document CHEMBL5584338, “Design, Synthesis, and Biological Evaluation of 5-Amino-4-fluoro-1H-benzo[d]imidazole-6-carboxamide Derivatives as Novel and Potential MEK/RAF Complex Inhibitors Based on the "Clamp" Strategy” (J Med Chem, 2024).

Calls of active or inactive are those of the source. No cut-off for these calls is given here.

Data set [1] deals with MIA PaCa-2. Nature of the data set: Antiproliferative activity against human MIA PaCa-2 cells harboring KRAS G12C mutant incubated for 72 hrs by CCK8 assay. It counts as functional, cell-based. The note with it: MIA PaCa-2, 72 h. Background: Formazan colour is commonly taken as a measure of viable cells.
Data set [2] relates to HCT-116. The data set can be described thus: Antiproliferative activity against human HCT-116 cells harboring KRAS G13D mutant at 1 uM incubated for 72 hrs by CCK8 assay relative to control. It counts as functional.
Data set [3] is described as follows: Antiproliferative activity against rat H9c2 cells incubated for 72 hrs by CCK8 assay. In kind it is toxicity, cell-based.
The target of data set [4] is T1, Serine/threonine-protein kinase B-raf (Homo sapiens, UniProt P15056). The data set can be described thus: Inhibition of BRAF (unknown origin).
T1 sequence (P15056 whole entry): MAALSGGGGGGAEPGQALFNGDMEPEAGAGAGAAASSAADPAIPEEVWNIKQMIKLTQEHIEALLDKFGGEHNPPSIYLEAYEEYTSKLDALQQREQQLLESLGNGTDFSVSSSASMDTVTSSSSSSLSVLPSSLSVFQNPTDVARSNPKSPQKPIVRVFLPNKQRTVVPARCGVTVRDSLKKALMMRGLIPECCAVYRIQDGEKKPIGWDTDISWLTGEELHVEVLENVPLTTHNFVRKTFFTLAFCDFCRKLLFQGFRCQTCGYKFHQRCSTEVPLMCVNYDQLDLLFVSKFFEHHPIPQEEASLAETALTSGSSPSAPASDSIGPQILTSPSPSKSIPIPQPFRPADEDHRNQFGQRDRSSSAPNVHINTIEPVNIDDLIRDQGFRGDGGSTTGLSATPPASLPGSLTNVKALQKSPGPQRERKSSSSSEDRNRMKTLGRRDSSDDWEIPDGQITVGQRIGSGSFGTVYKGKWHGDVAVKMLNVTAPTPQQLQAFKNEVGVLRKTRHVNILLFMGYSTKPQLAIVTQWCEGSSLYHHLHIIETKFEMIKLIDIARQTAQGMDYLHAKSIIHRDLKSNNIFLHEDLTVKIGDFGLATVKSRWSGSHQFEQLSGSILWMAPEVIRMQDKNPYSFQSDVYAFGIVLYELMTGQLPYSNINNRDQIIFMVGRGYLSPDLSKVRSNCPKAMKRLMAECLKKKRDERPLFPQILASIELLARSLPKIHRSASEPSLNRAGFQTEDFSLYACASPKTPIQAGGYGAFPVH
Data set [5] deals with T2, Dual specificity mitogen-activated protein kinase kinase 1 (Homo sapiens, UniProt Q02750). The data set can be described thus: Inhibition of MEK1 (unknown origin) assessed as remaining activity at 0.1 uM relative to control.
T2 sequence (Q02750 whole entry): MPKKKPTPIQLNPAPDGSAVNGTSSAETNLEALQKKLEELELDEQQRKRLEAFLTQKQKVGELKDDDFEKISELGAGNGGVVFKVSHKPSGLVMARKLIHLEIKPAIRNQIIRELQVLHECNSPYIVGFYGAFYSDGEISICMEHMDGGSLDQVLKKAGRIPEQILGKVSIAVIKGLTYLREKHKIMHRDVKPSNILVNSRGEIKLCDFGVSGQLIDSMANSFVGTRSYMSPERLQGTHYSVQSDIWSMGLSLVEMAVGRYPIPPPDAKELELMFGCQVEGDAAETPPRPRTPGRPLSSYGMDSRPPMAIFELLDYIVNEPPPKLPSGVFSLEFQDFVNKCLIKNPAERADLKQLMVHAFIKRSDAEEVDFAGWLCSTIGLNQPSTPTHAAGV
A further data set concerns HeLa. Nature of the data set: Antiproliferative activity against human HeLa cells incubated for 72 hrs by CCK8 assay. It counts as functional, cell-based.
The test system of data set [6] is MIA PaCa-2. The data set can be described thus: Antiproliferative activity against human MIA PaCa-2 cells harboring KRAS G12C mutant at 0.1 uM incubated for 72 hrs by CCK8 assay relative to control. In kind it is functional.
Data set [7] deals with T2, Dual specificity mitogen-activated protein kinase kinase 1. The data set can be described thus: Inhibition of MEK1 (unknown origin).
Data set [8] addresses T1, Serine/threonine-protein kinase B-raf. The data set can be described thus: Inhibition of BRAF (unknown origin) assessed as remaining activity at 0.1 uM relative to control.
Data set [9] concerns HCT-116. Nature of the data set: Antiproliferative activity against human HCT-116 cells harboring KRAS G13D mutant incubated for 72 hrs by CCK8 assay. In kind it is functional, cell-based. The note with it: HCT-116, 72 h.
Data set [10] in a line: Inhibition of BRAF […] mutant (unknown origin). Details: species or system Homo sapiens.
Data set [11] is described as follows: Antiproliferative activity against mouse C26 cells harboring KRAS G12D mutant incubated for 72 hrs by CCK8 assay. The note with it: C26, 72 h. In kind it is functional, cell-based, C-26.
In data set [12] the test system is Mitogen-activated protein kinase 1/3 (ERK1/2) (Homo sapiens). The data set can be described thus: Inhibition of ERK phosphorylation in human MIA PaCa-2 cells upto 1 uM incubated for 4 hrs by Western blot analysis.
The target of data set [13] is Dual specificity mitogen-activated protein kinase kinase; MEK1/2 (Homo sapiens) (UniProt P36507+Q02750). Nature of the data set: Inhibition of MEK phosphorylation in human MIA PaCa-2 cells upto 1 uM incubated for 4 hrs by Western blot analysis. In kind it is cell-based.
Chain of Dual specificity mitogen-activated protein kinase kinase; MEK1/2 (Homo sapiens) (P36507 whole entry, looked up): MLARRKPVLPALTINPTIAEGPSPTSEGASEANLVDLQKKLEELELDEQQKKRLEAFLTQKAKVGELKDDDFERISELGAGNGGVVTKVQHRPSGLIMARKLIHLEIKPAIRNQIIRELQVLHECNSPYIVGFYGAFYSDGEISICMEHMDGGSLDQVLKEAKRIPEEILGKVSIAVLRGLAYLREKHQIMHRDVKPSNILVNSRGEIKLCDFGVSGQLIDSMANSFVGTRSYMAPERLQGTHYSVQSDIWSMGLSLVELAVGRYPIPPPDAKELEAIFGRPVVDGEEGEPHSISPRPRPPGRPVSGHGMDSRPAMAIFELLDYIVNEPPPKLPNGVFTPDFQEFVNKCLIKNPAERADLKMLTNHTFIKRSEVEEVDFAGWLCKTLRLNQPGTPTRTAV
Chain of Dual specificity mitogen-activated protein kinase kinase; MEK1/2 (Homo sapiens) (Q02750 whole entry, looked up): as the sequence (Q02750 whole entry) above
Data set [14] can be described thus: Stability in human liver microsomes assessed as half life at 200 uM preincubated for 5 mins followed by NADPH addition measured upto 60 mins by LC-MS/MS analysis. It counts as ADME, Microsome. The note with it: time 65 min.

The term IC50 denotes the midpoint of a concentration-inhibition curve. Read a high IC50 as lower potency. One may read the inhibition as the change of the read-out against control, counted positive when it falls. On to `CNS(=O)(=O)Nc1cccc(Cn2cnc3c(F)c(Nc4ccc(C5CC5)cc4F)c(C(=O)NOCCO)cc32)c1`, for which the IC50 with MIA PaCa-2 [1] was 114 nM; in data set [4] it was 5 nM; in the data set with HeLa, over 10000 nM; in [7] it was 119 nM; in the data set on HCT-116 [9], 223 nM; in data set [10], 16 nM. Besides, the half-maximal inhibitory concentration (IC50) in data set [11] came to 152 nM. This compound also returned an inhibition at 1 µM with HCT-116 [2] of 52.8%. In [3], this compound returned a half-inhibitory concentration (IC50) at 72 h of over 50000 nM. For the same compound, the Activity is 58% in [5] and 5% in data set [8]. The compound also yielded an inhibition at 0.1 µM in the data set with MIA PaCa-2 [6] of 53.1%.

Turning to `CC(=O)Nc1cccc(Cn2cnc3c(F)c(Nc4ccc(C5CC5)cc4F)c(C(=O)NOCCO)cc32)c1`, the midpoint of inhibition in the data set on MIA PaCa-2 [1], the IC50, lay at 237 nM. For the same compound, in data set [12], the inhibition result is “Active”. The compound further showed an inhibition at 1 µM in the data set on HCT-116 [2] of 33.3%. Further, the Activity in data set [5] was determined as 75%; in data set [8], 22%. Moreover, the inhibition at 0.1 µM in the data set on MIA PaCa-2 [6] came to 64.8%.

`CNS(=O)(=O)Nc1cccc(Cn2cnc3c(F)c(Nc4ccc(C5CC5)cc4F)c(C(N)=O)cc32)c1` gave an inhibition at 1 µM in the data set with HCT-116 [2] of 21.9%. Further, the inhibition at 0.1 µM in the data set with MIA PaCa-2 [6] was 15.8%. Also, the concentration for half-maximal inhibition (IC50) in data set [7] is over 2000 nM.

For `CNS(=O)(=O)Nc1nccc(Cc2c(C)c3ccc(Oc4ncccn4)cc3oc2=O)c1F` [AVUTOMETINIB], the half-maximal inhibitory concentration (IC50) came to 115 nM with MIA PaCa-2 [1] and 739 nM in the data set on HCT-116 [9]. In addition, at 1 µM the inhibition in the data set with HCT-116 [2] was 56.1%. Also, the inhibition result in [13] was “Active”. In the data set with MIA PaCa-2 [6], this compound came in with an inhibition at 0.1 µM of 59.6%.

Usually half-life stands for the time in which the quantity being followed falls by half. Take `CNS(=O)(=O)Nc1cccc(Cn2cnc3c(F)c(Nc4ccc(C5CC5)cc4F)c(C(=O)NOCCO)cc32)c1F`: the half-inhibitory concentration (IC50) with MIA PaCa-2 [1] was 15 nM; in data set [4], 4 nM; with HeLa, over 10000 nM; in data set [7] it was 42 nM; in the data set on HCT-116 [9] it was 183 nM; in data set [10], 5 nM. The same compound returned an IC50 in [11] of 56 nM. The inhibition entry in [12] and in data set [13] was “Active” each time. In addition, the inhibition at 1 µM in the data set with HCT-116 [2] was determined as 61.2%. The compound also displayed a 50% inhibitory concentration (IC50) at 72 h in data set [3] of over 50000 nM. For the same compound, the Activity in data set [5] was 40%; in data set [8], -4%. Also, in data set [14], the half-life at 200 µM is 37.7 min. The inhibition at 0.1 µM in the data set with MIA PaCa-2 [6] turned out to be 75.9%.

For `CNS(=O)(=O)Nc1cccc(Cn2cnc3c(F)c(Nc4ccc(I)cc4F)c(C(=O)NOCCO)cc32)c1F`, the IC50 was 71 nM in the data set on MIA PaCa-2 [1]; 4 nM in [4]; over 10000 nM with HeLa; 8 nM in [7]; 74 nM in the data set on HCT-116 [9]; 11 nM in [11]. For the same compound, the inhibition entry in data set [12] and in data set [13] was “Active” each time. Testing at 1 µM with HCT-116 [2] gave an inhibition of 64.8%. The compound further came in with an IC50 at 72 h in [3] of over 50000 nM. The results for the Activity in data set [5] and in [8] were 9% and -2%, respectively. In addition, the half-life at 200 µM in [14] came to 25 min. Further, the inhibition at 0.1 µM in the data set on MIA PaCa-2 [6] was found to be 62%.

Consider `CCNS(=O)(=O)Nc1cccc(Cn2cnc3c(F)c(Nc4ccc(C5CC5)cc4F)c(C(=O)NOCCO)cc32)c1`, for which the IC50 is 23 nM in the data set on MIA PaCa-2 [1]; 7 nM in [4]; over 10000 nM in the data set on HeLa; 74 nM in data set [7]; 123 nM with HCT-116 [9]; 8 nM in data set [10]. The 50% inhibitory concentration (IC50) in [11] was determined as 226 nM. The inhibition entry in data set [12] was “Active”. In the data set on HCT-116 [2], this compound gave an inhibition at 1 µM of 60.4%. This compound also yielded an IC50 at 72 h in data set [3] of over 50000 nM. The Activity in data set [5] came to 46%; in data set [8], 0%. Also, the half-life at 200 µM in data set [14] came out at 47.5 min. In the data set on MIA PaCa-2 [6], this compound displayed an inhibition at 0.1 µM of 78.8%.

`CCNS(=O)(=O)Nc1cccc(Cn2cnc3c(F)c(Nc4ccc(I)cc4F)c(C(=O)NOCCO)cc32)c1Cl`: the 50% inhibitory concentration (IC50) in the data set with MIA PaCa-2 [1] was 127 nM; with HCT-116 [9] it was 377 nM. The same compound returned an inhibition at 1 µM with HCT-116 [2] of 61.4%. For the same compound, the Activity in data set [5] worked out at 9%; in data set [8] it was 0%. In addition, testing at 0.1 µM with MIA PaCa-2 [6] gave an inhibition of 43.1%.
